Reference: the NIST ThermoML archive (doi:10.1021/acs.jced.5b00192)
± gives the expanded uncertainty stated by the source.

Legend:
[1] = DTA
[2] = Molar enthalpy of transition or fusion; conditions: DSC

Normal melting temperature ([1]; Crystal 1): 195.38 ± 1.5 °C | Triple point temperature ([1]; Crystal 2): 435.39 ± 0.86 K | Molar enthalpy of transition or fusion ([2]; Crystal 1): 4.79 ± 0.179 kcal/mol | Molar enthalpy of transition or fusion ([2]; Crystal 2): 1.19 ± 0.0454 kcal/mol
Structure (SMILES): O=C1c2cccc(O)c2C(=O)c2c(O)cccc21 [1,8-dihydroxyanthraquinone]
